Data reported in ChEMBL document CHEMBL4130368, “Thienopyrimidine derivatives exert their anticancer efficacy via apoptosis induction, oxidative stress and mitotic catastrophe” (Eur J Med Chem, 2017).
pIC50: −log10 of the molar value. Calls of active or inactive are those of the source. The rule behind the calls is not given here.

What was measured:
HCT-116 [1] = test: Induction of mitotic catastrophe in human HCT116 cells assessed as formation of de-condensed multiple micronuclei at 0.5 to 2 uM measured after overnight incubation by DAPI-staining based microscopy; assay type: functional, cell-based
2008 [2] = test: Induction of apoptosis in human OV2008 cells assessed as late apoptotic cells at 2 uM measured after overnight incubation by mitotracker red/alexa fluor-488 Annexin V staining-based flow cytometry (reference value: 0.255%); assay type: functional
[3] = Selectivity index, ratio of IC50 for CHO cells to IC50 for human HCT15 cells; assay type: toxicity; details: Chinese hamster (CHO cells), CHO cells versus HCT15 cells, read-out: Ratio IC50
A2780 [4] = test: Cell cycle arrest in human A2780 cells assessed as accumulation at subG1 phase at 2 uM measured after overnight incubation by propidium iodide staining-based flow cytometry (reference value: 8.88%); assay type: functional
[5] = Selectivity index, ratio of IC50 for CHO cells to IC50 for human HCT116 cells; assay type: toxicity; details: Chinese hamster (CHO cells), CHO cells versus HCT116 cells, read-out: Ratio IC50
A2780 [6] = test: Induction of morphological changes in human A2780 cells at 0.1 to 3 uM after 68 hrs by microscopic method; assay type: functional, cell-based
HCT-116 [7] = test: Cell cycle arrest in human HCT116 cells assessed as accumulation at […] at 2 uM measured after overnight incubation by propidium iodide staining-based flow cytometry (reference value: 9.70%); assay type: functional
HCT-116 [8] = test: Induction of apoptosis in human HCT116 cells assessed as early apoptotic cells at 1 uM measured after overnight incubation by mitotracker red/alexa fluor-488 Annexin V staining-based flow cytometry (reference value: 8.36%); assay type: functional
A2780 [9] = test: Induction of apoptosis in human A2780 cells assessed as late apoptotic cells at 2 uM measured after overnight incubation by mitotracker red/alexa fluor-488 Annexin V staining-based flow cytometry (reference value: 0.015%); assay type: functional
[10] = Selectivity index, ratio of IC50 for CHO cells to IC50 for human GBM10 cells; assay type: toxicity; details: Chinese hamster (CHO cells), CHO cells versus GBM10 cells, read-out: Ratio IC50
HCT-116 [11] = test: Induction of apoptosis in human HCT116 cells assessed as early apoptotic cells at 2 uM measured after overnight incubation by mitotracker red/alexa fluor-488 Annexin V staining-based flow cytometry (reference value: 8.36%); assay type: functional
2008 [12] = test: Cell cycle arrest in human OV2008 cells assessed as accumulation at G2 phase at 2 uM measured after overnight incubation by propidium iodide staining-based flow cytometry (reference value: 26.9%); assay type: functional
[13] = Selectivity index, ratio of IC50 for CHO cells to IC50 for human LN229 cells; assay type: toxicity; details: Chinese hamster (CHO cells), CHO cells versus LN229 cells, read-out: Ratio IC50
2008 [14] = test: Induction of apoptosis in human OV2008 cells assessed as viable cells at 1 uM measured after overnight incubation by mitotracker red/alexa fluor-488 Annexin V staining-based flow cytometry (reference value: 80.5%); assay type: functional; details: read-out: Activity
HCT-116 [15] = test: Antiproliferative activity against bak deficient human HCT116 cells after 72 hrs by MTT assay; assay type: functional, cell-based; details: HCT-116, 72 h
HCT-116 [16] = test: Induction of apoptosis in human HCT116 cells assessed as viable cells at 1 uM measured after overnight incubation by mitotracker red/alexa fluor-488 Annexin V staining-based flow cytometry (reference value: 89%); assay type: functional; details: read-out: Activity
A2780 [17] = test: Induction of apoptosis in human A2780 cells assessed as early apoptotic cells at 2 uM measured after overnight incubation by mitotracker red/alexa fluor-488 Annexin V staining-based flow cytometry (reference value: 11.9%); assay type: functional
2008 [18] = test: Induction of apoptosis in human OV2008 cells assessed as late apoptotic cells at 1 uM measured after overnight incubation by mitotracker red/alexa fluor-488 Annexin V staining-based flow cytometry (reference value: 0.255%); assay type: functional
2008 [19] = test: Cell cycle arrest in human OV2008 cells assessed as accumulation at G1 phase at 2 uM measured after overnight incubation by propidium iodide staining-based flow cytometry (reference value: 52.6%); assay type: functional
2008 [20] = test: Cell cycle arrest in human OV2008 cells assessed as accumulation at S phase at 1 uM measured after overnight incubation by propidium iodide staining-based flow cytometry (reference value: 10.8%); assay type: functional
2008 [21] = test: Cell cycle arrest in human OV2008 cells assessed as accumulation at subG1 phase at 2 uM measured after overnight incubation by propidium iodide staining-based flow cytometry (reference value: 2.64%); assay type: functional
2008 [22] = test: Induction of apoptosis in human OV2008 cells assessed as early apoptotic cells at 1 uM measured after overnight incubation by mitotracker red/alexa fluor-488 Annexin V staining-based flow cytometry (reference value: 12.9%); assay type: functional
2008 [23] = test: Induction of cellular oxidative stress in human OV2008 cells assessed as increase in ROS levels at 0.5 to 4 uM after 48 hrs by DCFDA dye-based fluorescence microscopic method; assay type: functional, cell-based
A2780 [24] = test: Induction of cellular oxidative stress in human A2780 cells assessed as increase in ROS levels at 0.5 to 4 uM after 48 hrs by DCFDA dye-based fluorescence microscopic method; assay type: functional, cell-based
LN-229 = test: Antiproliferative activity against human LN229 cells after 72 hrs by MTT assay; assay type: functional, cell-based; details: LN-229, 72 h
2008 [25] = test: Induction of mitotic catastrophe in human OV2008 cells assessed as formation of large with flattened cells at 0.5 to 2 uM measured after overnight incubation by DAPI-staining based microscopy; assay type: functional, cell-based
A2780 [26] = test: Induction of apoptosis in human A2780 cells assessed as necrotic cells at 1 uM measured after overnight incubation by mitotracker red/alexa fluor-488 Annexin V staining-based flow cytometry (reference value: 9.94%); assay type: functional
2008 [27] = test: Inhibition of colony formation in human OV2008 cells at 1 to 2 uM after 24 hrs by crystal violet dye based assay; assay type: functional, cell-based
2008 [28] = test: Induction of apoptosis in human OV2008 cells assessed as necrotic cells at 2 uM measured after overnight incubation by mitotracker red/alexa fluor-488 Annexin V staining-based flow cytometry (reference value: 6.31%); assay type: functional
HCT-116 [29] = test: Antiproliferative activity against dko deficient human HCT116 cells after 72 hrs by MTT assay; assay type: functional, cell-based; details: HCT-116, 72 h
A2780 [30] = test: Induction of apoptosis in human A2780 cells assessed as viable cells at 1 uM measured after overnight incubation by mitotracker red/alexa fluor-488 Annexin V staining-based flow cytometry (reference value: 78.1%); assay type: functional; details: read-out: Activity
A2780 [31] = test: Cell cycle arrest in human A2780 cells assessed as accumulation at G1 phase at 1 uM measured after overnight incubation by propidium iodide staining-based flow cytometry (reference value: 51.1%); assay type: functional
A2780 [32] = test: Induction of apoptosis in human A2780 cells assessed as necrotic cells at 2 uM measured after overnight incubation by mitotracker red/alexa fluor-488 Annexin V staining-based flow cytometry (reference value: 9.94%); assay type: functional
HCT-116 [33] = test: Cell cycle arrest in human HCT116 cells assessed as accumulation at G2 phase at 1 uM measured after overnight incubation by propidium iodide staining-based flow cytometry (reference value: 24%); assay type: functional
A2780 [34] = test: Induction of mitotic catastrophe in human A2780 cells assessed as multinuclear changes at 0.5 to 2 uM measured after overnight incubation by DAPI-staining based microscopy; assay type: functional, cell-based

For `COc1ccc(-c2nc(O)c3c4c(sc3n2)CCCC4)cc1`, the Activity (HCT-116 [1]) was “Active”, the Activity 2008 [2] was 0.057% and the selectivity ratio [3] was 17 to 28. The Activity (A2780 [4]) was 7.54%, the selectivity ratio [5] was 17 to 28 and the Activity (A2780 [6]) was “Active”. For the same molecule, the Activity (HCT-116 [7]) was 10.6%, the Activity (HCT-116 [8]) was 11.6% and the Activity (A2780 [9]) was 0.051%. For the same molecule, the selectivity ratio [10] was 17 to 28, the Activity (HCT-116 [11]) was 25.9% and the Activity 2008 [12] was 41.1%. It also gave a selectivity ratio [13] of 17 to 28, a viability at 1 µM 2008 [14] of 75.1% and a pIC50 (HCT-116 [15]) of 5.85. The viability at 1 µM (HCT-116 [16]) was 87%, the Activity (A2780 [17]) was 51.2% and the Activity 2008 [18] was 0.245%. It also gave an Activity 2008 [19] of 13.6%, an Activity 2008 [20] of 20.4% and an Activity 2008 [21] of 1.29%. The Activity 2008 [22] was 20.3%, the Activity 2008 [23] was “Active” and the Activity (A2780 [24]) was “Active”. For the same molecule, the pIC50 (LN-229) was 6.30, the Activity 2008 [25] was “Active” and the Activity (A2780 [26]) was 0.421%. For the same molecule, the inhibition 2008 [27] was “Dose-dependent effect”, the Activity 2008 [28] was 3.79% and the pIC50 (HCT-116 [29]) was 5.85. The viability at 1 µM (A2780 [30]) was 73.8%, the Activity (A2780 [31]) was 20.2% and the Activity (A2780 [32]) was 5.77%. The Activity (HCT-116 [33]) was 47.1% and the Activity (A2780 [34]) was “Active”.
